This passage reports GI50 and TGI results from PubChem BioAssay (NCI).

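1) Cells in 96-well plates. 2) Compound, 48 h, 5 concentrations. 3) Linear interpolation between surrounding doses. 4) Unreached endpoint = highest concentration. GI50: concentration for 50% inhibition of growth. TGI is the concentration that stops growth completely.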 Where only a bound is given, the exact number is not on record here.

Assay in all cases: NCI tumour cell line growth inhibition, 48 h
The test system of test [1] is BT-549 breast.
Test [2] has as its system CCRF-CEM leukemia.
Test [3] deals with COLO 205 colon.
The test system of test [4] is HL-60(TB) leukemia.
The subject of test [5] is HOP-62 NSCLC.
For test [6], the system named is HT29 colon.
The subject of test [7] is MDA-MB-231 breast.
In test [8] the test system is SF-295 CNS.
Test [9] deals with SK-OV-3 ovarian.
For test [10], the system named is SR leukemia.

As for `CCOC(=O)c1cnc(SCc2ccc(Cl)c(Cl)c2)nc1N1CC1`, the GI50 in [1] is 2.88 µM; in test [2], 2.82 µM; in test [3] it was 2.9 µM; in [4], 1.72 µM; in [5] it was 2.95 µM; in [6], 2.7 µM. The GI50 in test [7] is 6.12 µM; in test [8], 2.43 µM; in test [9] it was 2.85 µM. In addition, the TGI was 13.6 µM in test [1]; 28.1 µM in [2]; 13.2 µM in test [3]; 9.13 µM in test [4]; 13.6 µM in [5]; 12.2 µM in test [6]. The TGI was found to be 27.2 µM in [7], 8.99 µM in test [8] and 10.4 µM in [9].

With `O=c1c(Cl)nnc2sc3ccccc3n12`, the GI50 is 64.9 µM in test [1]; 47 µM in test [3]; 18.3 µM in [4]; 67.4 µM in [5]; 53.7 µM in test [6]; 14.2 µM in test [7]. Moreover, the GI50 in [8] was 45.6 µM; in [9] it was 59.9 µM; in [10], 13.1 µM. Moreover, the TGI in test [1], in test [3], in [4], in test [5], in test [6] and in test [7] was above 100 µM throughout. Also, the TGI in test [8], in test [9] and in test [10] was above 100 µM throughout.

`C1=CN2C[n+]3cccc(OCc4ccccc4)c3N=C2C(OCc2ccccc2)=C1`: the TGI in test [1] is 3.25 µM; in test [3], 18 µM; in test [4], 0.849 µM; in test [5], above 100 µM; in [6], 47.1 µM; in test [7] it was 56.1 µM. The TGI in [8] was 50 µM; in test [9], above 100 µM.

For `COc1ccc(/C(=C/c2cc(OC)c(OC)c(OC)c2)[N+](=O)[O-])cc1`, the GI50 was 1.7 µM in test [1]; 1.79 µM in [3]; 1.61 µM in [4]; 2.64 µM in test [5]; 3.68 µM in test [6]; 1.47 µM in test [7]. Moreover, the GI50 in test [8] was 2.09 µM; in test [9], 4.96 µM. For the same molecule, the TGI was found to be 3.2 µM in test [1]; 3.74 µM in test [3]; 5.59 µM in test [4]; 5.93 µM in test [5]; 8.98 µM in test [6]; 3.28 µM in test [7]. For the same molecule, the TGI in test [8] was 5.34 µM; in test [9], 17 µM.

As for `O=C1C2CC(Cl)C(SSC3CC4C(=O)N(SC(Cl)(Cl)C(Cl)Cl)C(=O)C4CC3Cl)CC2C(=O)N1SC(Cl)(Cl)C(Cl)Cl` (stereo not drawn), the TGI in [1] amounted to 3.41 µM; in test [3], 4.87 µM; in test [4] it was 1.83 µM; in [5], 8.64 µM; in test [7] it was 3.16 µM; in test [8], 17.1 µM. Further, the TGI worked out at 8.53 µM in [9] and 1.21 µM in [10].

Consider `OB([O][Hg][c]1ccccc1)[O][Hg][c]1ccccc1`, for which the GI50 is 0.226 µM in test [1]; 0.502 µM in test [3]; 0.0886 µM in test [4]; 1.04 µM in test [5]; 0.384 µM in test [6]; 0.628 µM in [7]. The GI50 in [8] and in test [9] was 1.6 µM in each case. For the same molecule, the TGI in test [1] stood at 0.779 µM; in [3], 1.46 µM; in test [4], 0.378 µM; in test [5], 3.39 µM; in test [6], 1.75 µM; in test [7], 1.89 µM. Besides, the TGI in test [8] is 3.17 µM; in [9], 2.97 µM.

In the case of `O=C(Nc1ccncc1)C(=O)c1cn(S(=O)(=O)c2ccc(Br)cc2)c2ccccc12`, the GI50 in test [1] was 11.8 µM; in [2], 7.67 µM; in test [3], 27.7 µM; in test [4], 2.41 µM; in test [5] it was 3.67 µM; in [6], 2.82 µM. For the same molecule, the GI50 in test [7] is 10.2 µM; in [8] it was 2.26 µM; in test [9], 19.9 µM. Moreover, the TGI in [1] was above 100 µM; in test [2] it was above 100 µM; in test [3], above 100 µM; in [4], above 100 µM; in [5], 38.7 µM; in [6] it was above 100 µM. The TGI was 83 µM in test [7], above 100 µM in [8] and above 100 µM in [9].

With `Cc1ccc2c(c1)NC(c1ccc(C(=O)O)cc1)c1cccn1-2` (stereo not drawn), the TGI was above 100 µM in test [1]; above 100 µM in test [2]; above 100 µM in test [3]; 58.6 µM in test [5]; above 100 µM in [6]; above 100 µM in [7]. Moreover, the TGI in test [8] was above 100 µM; in test [9], 51.8 µM; in test [10], above 100 µM.

Take `O=C1/C(=C\c2ccc(Cl)cc2)CN(C(=S)Nc2ccccc2)C/C1=C\c1ccc(Cl)cc1`: the GI50 in test [1] was 0.6 µM; in test [2], 0.453 µM; in test [3], 0.507 µM; in test [4] it was 1.62 µM; in test [5], 0.269 µM; in test [6], 0.277 µM. The GI50 was 0.735 µM in test [7], 0.389 µM in [8] and 2.03 µM in test [9]. Besides, the TGI in test [1] came to 1.77 µM; in [2], 13.2 µM; in [3], 1.84 µM; in test [4], 7.85 µM; in [5] it was 0.696 µM; in test [6], 0.719 µM. Also, the TGI in test [7] is 5.44 µM; in test [8], 1.73 µM; in test [9] it was 4.86 µM.

As to `COc1cc2c3c(n(C)c(=O)c2cc1OC)-c1cc2c(cc1/C3=C\CCCCN)OCO2`, the GI50 in test [3] is 27.5 µM; in test [4], 4.68 µM; in test [6], 7.45 µM; in test [7] it was 2.94 µM; in test [8] it was 3.56 µM; in test [9], 17.1 µM. Further, the GI50 in test [10] was 3.58 µM. Further, the TGI in test [3] was above 100 µM; in [4] it was above 100 µM; in test [6] it was above 100 µM; in test [7] it was 11.4 µM; in [8], 15.2 µM; in [9], 46.7 µM. For the same molecule, the TGI in test [10] is above 100 µM.
